The text below walks through data of US10675239B2, “Vegetable extract to prevent and treat hair loss” (GIULIANI S.P.A., priority 2017, dated 2020).

What all share (assay type): cell-based, mouse
For series [1], the system named is 5 alpha-reductase isoform 2 (SRD5A2). Description: Gene expression of isoform 2 of 5 alpha-reductase (SRD5A2) in BALB3T3 cells by qRT-PCR. To be noted: 0.05 mg/mL, 24 h, relative expression 2^-ΔΔCt vs β-actin, Ctr = 1. The protocol:
Effects of Galeopsis segetum and Galeopsis tetrahit Study on the Activity of 5 Alpha-Reductase (Isoform 2)-BALB3T3
The gene expression of the isoform 2 of 5 alpha-reductase (SRD5A2) in BALB3T3 cells was evaluated by relative quantitative RT-PCR (quantitative reverse transcription polymerase chain reaction-qRT-PCR).
This analysis has foreseen 3 sequential phases: • Total RNA extraction; • Reverse transcription in cDNA; • qRT-PCR.
BALB3T3 murine fibroblasts were seeded in 12-well plates at a density of 0.5*10^6 cells/well and incubated until about 80% confluence was achieved.
Subsequently, the cells were incubated for 24 hours with Galeopsis segetum and Galeopsis tetrahit (vegetable biomass and dry hydro-alcoholic sample) at the following concentrations: 20-50 and 100 μg/ml. […]
At the end of the incubation with the active compounds of interest, cells were washed with PBS (1×) and finally subjected to the RNA extraction procedure. At the end of the extraction, using a spectrophotometer (Jenway UV/VIS MOD: 6715, BS-6715B0), the concentrations in μg/ml of total RNA extracted at the wavelength of 260 nm were calculated. Finally, the integrity of RNA (2 μg/ml) by electrophoretic run on 1% agarose gel was evaluated. […]
The extracted and quantified RNA was diluted to a concentration of 2 μg/ml and retro-transcripted in cDNA. […]
Assuming a 100% amplification efficiency, the 2^−ΔΔCt was calculated.

The subject of series [2] is ROS production in the BALB3T3 murine fibroblast cell line. Description: ROS intracellular production (DCFH-DA assay)-BALB3T3. To be noted: 25 μM, 16 h pretreatment, then 1 mM H2O2 90 min; ctr + H2O2 = 100. The method, then: Study of the Effects of Galeopsis segetum and Galeopsis tetrahit and on ROS Production Using a DCFH-DA-BALB3T3 Assay
The ROS production in the BALB3T3 murine fibroblast cell line was determined by spectrophotometer using the 2,7-dichlorofluorescein-diacetate (DCFH-DA) assay, as described by Tobi et al. (Tobi et al., 2000).
DCFH-DA is a non-fluorescent compound in lipophilic form, able to spread through the cell membrane. Once inside the cell, it is deacetylated by the intracellular esterases to reduced 2,7-dichlorofluorescein (DCFH), which is also non-fluorescent. DCFH, unable to cross again the cell membrane, eventually ends up accumulating in the cells (Curtin et al., 2002). The intracellular ROS reaction leads to the oxidation of 2.7-dichlorofluorescein (DCF) DCFH, a highly fluorescent compound. This fluorescence intensity can be detected with a fluorimeter, allowing estimating the amount of ROS produced in the cells.
[…]
Subsequently, the lysates were transferred in a 96-well black plate and the fluorescence of DCF was read spectrofluorimetrically using a FluoroskanAscent FL Microplate Fluorescence Reader (Thermo Fisher ScientificInc., Waltham, Mass., USA), with excitation and emission wavelengths of 485 and 538 nm respectively. […]

In series [3] the test system is BALB3T3 murine fibroblasts stressed with H2O2. Kind of series: MTT with induced oxidative stress-BALB3T3. To be noted: 50 μM, pretreatment, then 1 mM H2O2 90 min; non-stressed ctr = 100, Ctr + H2O2 = 58.43. The text has this:
MTT with Induced Oxidative Stress-BALB3T3
BALB3T3 mouse fibroblasts are one of the validated models for studies of oxidative stress in vitro (Subirade et al., 1995; Kutuk et al., 2004).
Studies conducted in 2005 by Rajapakse and coworkers (2005) highlighted the possibility of exploiting a highly used and versatile method such as that of the MTT assay for the in vitro study antioxidant activity of active compounds. Specifically, through this method it is possible to study the protective effects of these compounds on cells subsequently subjected to oxidative stress. The induction of oxidative stress is carried out by incubation with hydrogen peroxide, an agent that induces the production of oxidative damage in the cells through ROS formation. The possible protective effects can be determined through the assessment of cell viability after oxidative stress of the pre-treated/pre-exposed cells to the active compounds to be tested, in comparison with cells subjected to the same oxidative stress. […]
Once the oxidation stress induction phase was completed, the cell viability of the various samples was evaluated, according to the method described in point 4.1.2 (assay with MTT).
The data were expressed as a percentage of cell viability compared to non-stressed control cells (ctr), according to the following formula: % cell viability/ctr=(Sample Abs/ctr Abs)*100 […]

On to `CC(C)(C)NC(=O)[C@H]1CC[C@H]2[C@@H]3CC[C@H]4NC(=O)C=C[C@]4(C)[C@H]3CC[C@]12C` [finasteride], for which the “mRNA SERD5A2” value in series [1] amounted to 0.31. For `Cc1c(C)c2c(c(C)c1O)CC[C@@](C)(CCC[C@H](C)CCC[C@H](C)CCCC(C)C)O2` [α-tocopherol], the “% ROS” value in series [2] worked out at 39.67%. Moreover, in series [3], the “% cells viability” value is given as 78.37%.
